Assay results published in patent publication US8609065B2, “Molecules for targeting compounds to various selected organs, tissues or tumor cells” (Prosensa Technologies B.V., priority 2007, dated 2013).
Peptide text beside a SMILES is read from it.

Experiments:
KM109 cells = assay: Uptake of fluorescently labeled variants of THRPPMWSPVWP on KM109 cells; type: cell-based; details: fluorescently labeled peptide
Protocol: Several variants of peptide THRPPMWSPVWP (SEQ ID NO: 1) (see Table 2) were selected, synthesized with a fluorescent label and tested for uptake on KM109 cells. Peptides 3, 7, 8, 9, 10, and 11 were tested. […] The other peptides depicted in the table below are yet to be tested for uptake on KM109 cells. Moreover, all peptides are to be tested for uptake on neuroblastoma cells in a similar fashion.

muscle cells = assay: Selective uptake by muscle cells (summary statement); type: cell-based
From the text: Therefore, these may be used for targeting diagnostic moieties or biologically active moieties to an organ or tissue or cell type of interest, especially to muscle cells or across the blood brain barrier to brain cells, to neuronal cells or to tumor cells of neuronal or neuroectodermal origin.

[1] = test system: N1E-115 mouse neuroblastoma cells; assay: In vitro uptake of FAM-labeled peptides into neuroblastoma cells (fluorescence microscopy); type: cell-based; details: FAM-labeled peptide, N1E-115 cells
Protocol: A selection of peptides was synthesized and provided with a fluorescent label (FAM) and screened for uptake on mouse neuroblastoma cells in vitro.
N1E-115 mouse neuroblastoma cells were incubated with the FAM-labeled peptides and photographed with an inverted fluorescence microscope, without previous fixation.

[2] = In vivo targeting to brain cells, Cy5-labeled peptide imaging; details: 7 nmol intravenously, nude mouse
Protocol: Peptide THRPPMWSPVWP (SEQ ID NO: 1) was labeled with a Cy5 fluorescent label and 7 nmol was injected intravenously into the tail vein of a nude mouse. Pictures were taken with a Maestro imaging system using the filters for Cy5 detection.
On the left side of FIGS. 1A and 1B the detected Cy5 pattern is shown separately in red for quantitation. The numbers on the left side indicate the amount of detected Cy5 label.

| Compound | uptake on KM109 cells (KM109 cells) | selective uptake by muscle cells (muscle cells) | further results |
| --- | --- | --- | --- |
| THRPPMWS | taken up, although at a lower level | selectively taken up by muscle cells |  |
| LPWKPLG |  |  | intracellular staining pattern after uptake [1]: uniform staining of the cytoplasm as well as the nucleus; uptake by the neuroblastoma cells ([1]; inverted fluorescence microscope, no fixation): efficiently taken up |
| HRPPMWSPVWP | taken up very efficiently | selectively taken up by muscle cells |  |
| CSCC[C@H](NC(=O)[C@@H]1CCCN1C(=O)[C@@H]1CCCN1C(=O)[C@H](CCCNC(=N)N)NC(=O)[C@H](Cc1c[nH]cn1)NC(=O)[C@@H](N)[C@@H](C)O)C(=O)N[C@@H](Cc1c[nH]c2ccccc12)C(=O)N[C@@H](CO)C(=O)N1CCC[C@H]1C(=O)N[C@H](C(=O)N[C@@H](Cc1c[nH]c2ccccc12)C(=O)N1CCC[C@H]1C(=O)O)C(C)C [THRPPMWSPVWP] (H-THRPPMWSPVWP-OH; N-terminus and C-terminus assumed) |  |  | crossing of the blood brain barrier [2]: able to cross the blood brain barrier; Cy5 signal in the brain ([2]; 20 minutes after injection): clear signal could be detected in the brain |
| HRPPMWSPVW | taken up, although at a lower level | selectively taken up by muscle cells |  |
